From US12527874B2, “Bioorthogonal compositions” (TAMBO, INC., priority 2015, dated 2026)

Key:
[1] = tested on: human soft tissue sarcoma (HT-1080) xenografts; test: Inhibition of HT1080 xenograft growth (soft tissue sarcoma model, HMT injected near tumor); assay type: in vivo, mice
Experimental: HMT was injected near the palpable soft tissue sarcoma tumors after 18 days when their size reached an average of 195 mm3 (range, 90-500 mm3). The mice were separated into two cohorts: (i) 3 intravenous doses of 14 μmoles/kg of doxorubicin every 4 days (maximum tolerable dose), (27, 49) or (ii) daily doses of 14 μmoles/kg of doxorubicin for 10 days (FIG. 18B). Tumor volumes were measured twice a week for 13 weeks (FIG. 18A). No further therapies were given to the subjects 28 days post tumoral implantation (dpi).

[2] = 3 days after the last treatment, after injection of HMT
Experimental: Samples were collected 3 days after the last treatment. Data are means±SD (n=2).
Reticulocyte measurements. Two mice per condition were anesthetized with isoflurane anesthesia 3 days after the last treatment during the nadir of reticulocyte decrease. (27) Blood was collected by cardiac puncture in a syringe containing lithium heparin to prevent coagulation. RBC and reticulocyte concentrations were determined the same day using a DEXX ProCyte Dx Hematology Analyzer (IDEXX Laboratories, Inc.).

[3] = xenograft mice, HMT injected
[4] = tested on: HT1080 cells; test: MTT cytotoxicity assay; settings: read-out: 50% growth inhibitory concentration (IC50), 48 h treatment followed by additional 48 h in DMEM
Experimental: Cells were treated with the drug or the pro-drug for 48 h, followed by additional 48 h in DMEM, prior to measuring their viability.
HT1080 cells were purchased from ATCC (cat. #CCL-121), and propagated in Dulbecco's modified Eagle's medium (DMEM; Meditech, Inc. Corning, Manassas, VA) containing 5% fetal bovine serum (FBS; HyClone, Logan Utah), supplemented with 100 U/ml penicillin, and 100 μg/ml streptomycin (Life Tech Corp., Grand Island, NY) at 37° C. in a 5% CO2 incubator.
Day one: using 96-well format, plated˜100 cells/well in 100 μL DMEM and incubated for 24 h. […] Day four: the medium was replaced with 100 μL of fresh DMEM and the cells were incubated for 48 h. Day six: DMEM was removed and the cells were incubated with 100 μL of MTT solution (0.6 mg/mL in DMEM) per well for 4 h at 37° C. The MTT solution was then replaced with 100 μL of DMSO containing 4% aqueous ammonia per well to dissolve the purple formazan crystals. After 30 min, the absorbance of each well at 550 nm was recorded using BioTek Synergy HT multi detection microplate reader. Results were averaged from three independent arrays of triplicate experiments.

reticulocyte counts [2]: dramatic decrease in reticulocytes
Compound: COc1cccc2c1C(=O)c1c(O)c3c(c(O)c1C2=O)C[C@@](O)(C(=O)CO)C[C@@H]3O[C@H]1C[C@H](N)[C@H](O)[C@H](C)O1 [doxorubicin]
median tumor size ([1]; 2 weeks after the last treatment dose (40 dpi), HMT near tumor): undetectable | mice with a mild response ([1]; 40 dpi, HMT near tumor): 1/5 | median tumor size ([1]; 30 days after the last treatment dose (60 dpi), HMT near tumor): greater than 2000 mm^3 | mice that reached the study endpoint of 2000 mm3 ([1]; by 88 dpi): 5/5 | body weight lost [3]: about 20% | IC50 [4]: 0.018 µM
